Experimental findings from US7671054B1, “Reverse-turn mimetics and method relating thereto” (Choongwae Pharma Corporation, priority 2001, dated 2010) are described below.

For one assay, the system named is HCT116 cells. As to the kind of experiment: Growth inhibition assay (MTS). Format: cell-based. The note with it: Homo sapiens, HCT-116, 48 h, Table 5; HCT116 cells, 48 hours treatment, MTS; read-out: Growth Inhibition (GI50, uM) HCT116. The gist of the method: (§1)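 Cells seeded at 10^4 per well, grown 24 h at 37° C, then exposed to compound at various concentrations for 48 hours. MTS added for 2 h; absorbance at 490 nm gave viability, with cytotoxicity calculated per concentration against pre-treatment reading.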

A further assay concerns SW480 cells. As to the kind of experiment: Growth inhibition assay (MTS). Format: cell-based. The note with it: Homo sapiens, SW480, 48 h, Table 5; SW480 cells, 48 hours treatment, MTS; read-out: Growth Inhibition (GI50, uM) SW480. The gist of the method: as §1

What is called GI50 is the concentration at which growth is held to half of that of the control. On to `C=CCN1CC(=O)N2[C@@H](Cc3ccc(O)cc3)C(=O)N(Cc3ccc4[nH]nnc4c3)C[C@@H]2N1C(=O)NCc1ccccc1` [Compound 108], for which the figures for the GI50 in the assay on HCT116 cells and with SW480 cells were 37.9 ± 5.7 µM and 24.9 ± 2.2 µM, respectively.

Consider `C=CCN1CC(=O)N2[C@@H](Cc3ccc(O)cc3)C(=O)N(Cc3ccc(Cl)c4cccnc34)C[C@@H]2N1C(=O)NCc1ccccc1` [Compound 109], for which the GI50 with HCT116 cells came to 1.1 ± 0.1 µM; with SW480 cells it was 1.3 ± 0.3 µM.

Regarding `C#CCN1CC(=O)N2[C@@H](Cc3ccc(O)cc3)C(=O)N(Cc3ccc(Cl)c4cccnc34)C[C@@H]2N1C(=O)NCc1ccccc1` [Compound 110], the GI50 is 1.9 ± 0.1 µM in the assay on HCT116 cells and 2.1 ± 0.3 µM in the assay on SW480 cells.

Regarding `C=CCN1CC(=O)N2[C@@H](Cc3ccc(O)cc3)C(=O)N(Cc3ccc(Cl)c(N4CCOCC4)c3)C[C@@H]2N1C(=O)NCc1ccccc1` [Compound 111], the GI50 in the assay on HCT116 cells worked out at 2.1 ± 0.2 µM; in the assay on SW480 cells, 2.7 ± 0.8 µM.

Regarding `C#CCN1CC(=O)N2[C@@H](Cc3ccc(O)cc3)C(=O)N(Cc3ccc(Cl)c(N4CCOCC4)c3)C[C@@H]2N1C(=O)NCc1ccccc1` [Compound 112], the concentration for 50% growth inhibition (GI50) stood at 4.7 ± 0.3 µM with HCT116 cells and 5.1 ± 0.5 µM with SW480 cells.

Take `C#CCN1CC(=O)N2[C@@H](Cc3ccc(O)cc3)C(=O)N(Cc3ccc4ncsc4c3)C[C@@H]2N1C(=O)NCc1ccccc1` [Compound 113]: the 50% growth inhibitory concentration (GI50) with HCT116 cells was 3.7 ± 0.6 µM; with SW480 cells, 6.8 ± 1.4 µM.

Consider `C=CCN1CC(=O)N2[C@@H](Cc3ccc(O)cc3)C(=O)N(Cc3ccc4ncsc4c3)C[C@@H]2N1C(=O)NCc1ccccc1` [Compound 114], for which the concentration for 50% growth inhibition (GI50) was found to be 1.9 ± 0.2 µM with HCT116 cells and 1.7 ± 0.7 µM in the assay on SW480 cells.

On to `C#CCN1CC(=O)N2[C@@H](Cc3ccc(O)cc3)C(=O)N(Cc3ccc(F)cc3F)C[C@@H]2N1C(=O)NCc1ccccc1` [Compound 116], for which the GI50 in the assay on HCT116 cells was 1.7 ± 0.1 µM; with SW480 cells, 2.8 ± 0.9 µM.

As to `C=CCN1CC(=O)N2[C@@H](Cc3ccc(O)cc3)C(=O)N(Cc3cccc4c3N(C)CCO4)C[C@@H]2N1C(=O)NCc1ccccc1` [Compound 117], the GI50 in the assay with HCT116 cells turned out to be 0.3 ± 0.02 µM; in the assay with SW480 cells, 0.6 ± 0.1 µM.

In the case of `C#CCN1CC(=O)N2[C@@H](Cc3ccc(O)cc3)C(=O)N(Cc3ccc4c(c3)OCCN4C)C[C@@H]2N1C(=O)NCc1ccccc1` [Compound 118], the 50% growth inhibitory concentration (GI50) in the assay on HCT116 cells worked out at 23.2 ± 2.8 µM; in the assay on SW480 cells it was 21.2 ± 1.5 µM.

In the case of `C=CCN1CC(=O)N2[C@@H](Cc3ccc(O)cc3)C(=O)N(Cc3ccc4c(c3)OCCN4C)C[C@@H]2N1C(=O)NCc1ccccc1` [Compound 119], the GI50 in the assay on HCT116 cells worked out at 9.5 ± 1.1 µM; with SW480 cells, 10 ± 1.3 µM.

Turning to `CCCN1CC(=O)N2[C@@H](Cc3ccc(O)cc3)C(=O)N(Cc3ccc(Cl)c4cccnc34)C[C@@H]2N1C(=O)NCc1ccccc1` [Compound 120], the GI50 in the assay on HCT116 cells turned out to be 2.6 ± 0.1 µM; with SW480 cells, 1.8 ± 0.2 µM.

Turning to `CN1CC(=O)N2[C@@H](Cc3ccc(O)cc3)C(=O)N(Cc3cccc(N4CCCC4=O)c3)C[C@@H]2N1C(=O)NCc1ccccc1` [Compound 121], the figures for the 50% growth inhibitory concentration (GI50) with HCT116 cells and in the assay with SW480 cells were 13.1 ± 0.6 µM and 8.2 ± 0.5 µM, respectively.

On to `C=CCN1CC(=O)N2[C@@H](Cc3ccc(O)cc3)C(=O)N(Cc3cccc(N4CCCC4)c3)C[C@@H]2N1C(=O)NCc1ccccc1` [Compound 125], for which the GI50 in the assay on HCT116 cells was found to be 1.9 ± 0.2 µM; in the assay with SW480 cells, 2.2 ± 0.3 µM.

`C=CCN1CC(=O)N2[C@@H](Cc3ccc(O)cc3)C(=O)N(Cc3cc(N(C)C(C)C)cc(C(F)(F)F)c3)C[C@@H]2N1C(=O)NCc1ccccc1` [Compound 126]: the GI50 in the assay on HCT116 cells was 11.6 ± 3 µM; in the assay on SW480 cells, 19.4 ± 3 µM.

Turning to `CCCN1CC(=O)N2[C@@H](Cc3ccc(O)cc3)C(=O)N(Cc3ccc(F)cc3F)C[C@@H]2N1C(=O)NCc1ccccc1` [Compound 127], the results for the GI50 in the assay with HCT116 cells and in the assay on SW480 cells were 4.3 ± 0.7 µM and 4.9 ± 0.7 µM, respectively.

As to `C=CCN1CC(=O)N2[C@@H](Cc3ccc(O)cc3)C(=O)N(Cc3cccc4c3OCCN4C)C[C@@H]2N1C(=O)NCc1ccccc1` [Compound 128], the GI50 was 1 ± 0.03 µM in the assay with HCT116 cells and 0.9 ± 0.1 µM in the assay with SW480 cells.

With `C=CCN1CC(=O)N2[C@@H](Cc3ccc(NC=O)cc3)C(=O)N(Cc3ccc(F)cc3F)C[C@@H]2N1C(=O)NCc1ccccc1` [Compound 129], the concentration for 50% growth inhibition (GI50) in the assay with HCT116 cells was determined as 3.1 ± 0.3 µM; with SW480 cells, 2.9 ± 0.5 µM.
